What was measured:
[1] = test system: CHO-T cells expressing an IRAP-GFP construct; assay: Insulin-induced translocation of IRAP-GFP (GLUT4 vesicles) to the plasma membrane, immunofluorescence, surface:total IRAP-GFP ratio; assay type: cell-based; details: unpermeabilised, anti-GFP staining vs GFP fluorescence, 200 nM insulin for 30 min, inhibitor (wortmannin) treatment preceding stimulation, 20 fields of view
Source text: The IRAP-GFP construct used in this example was constructed using an IRAP fragment 66-533 (from the start site to the end of the extracellular ‘stalk’ region) which was generated by PCR using specific primers from a partial cDNA IRAP clone available to the inventors. The resulting fragment was cloned into the pcDNA3 vector using the flanking restriction enzyme sites. GFP3 with a C-terminal myc-tag was also generated by PCR using specific primers and the product cloned into pcDNA3 downstream of the IRAP insert.
CHO-T cells were transfected or microinjected with the IRAP-GFP construct and 24 h later were stimulated without or with 200 nM insulin for 30 min. This was preceded by treatment with an inhibitor (e.g. wortmannin) of insulin signalling.
Subsequently cells were fixed and stained with anti-GFP antibodies (Roche) without prior permeabilisation, as described below, in order to visualise GFP exposed on the surface of the plasma membrane only. […]
The total IRAP-GFP expression level is given by the level of GFP fluorescence (and this corresponds to the second detection method of the first aspect of the invention). […]
Fluorescence intensity due to IRAP-GFP fluorescence and surface IRAP-GFP immunostaining was then computed from cells imaged in 20 fields of view for each treatment condition. Results are expressed as an average ratio of surface:total IRAP-GFP.

[2] = test system: 3T3-L1 adipocytes microinjected with the IRAP-GFP construct; assay: Insulin-induced translocation of GLUT4-containing vesicles (IRAP-GFP) to the plasma membrane in 3T3-L1 adipocytes, confocal microscopy; assay type: cell-based; details: serum-starved 2 hours, 100 nM insulin for 30 minutes
Method: 3T3-L1 fibroblasts (between passages 4 and 12) were seeded onto 22 mm glass coverslips and allowed to grow to confluence. Differentiation into adipocytes was induced in DMEM containing 10% (v/v) myoclone-plus FCS, 0.25 μM dexamethasone, 0.5 mM isobutylmethylxanthine and 166 nM insulin for 2 days (day 0 to day 2). This medium was replaced with DMEM containing 10% (v/v) myoclone-plus FCS and 166 nM insulin for a further 2 days (day 2 to day 4). From day 4 onwards cells were maintained in DMEM containing 10% (v/v) myoclone-plus FCS, replacing the medium every two days. 3T3-L1 adipocytes were used between day 7 and day 10 after initiation of differentiation.
Differentiated 3T3-L1 adipocytes were microinjected with the IRAP-GFP construct used in Example 1 (pcDNA3). […]
The total level of the IRAP-GFP expression is indicated by the level of GFP fluorescence detected (this corresponds to the second detection method of the first aspect of the invention). […] The fluorescence intensity due to IRAP-GFP fluorescence and surface IRAP-GFP immunostaining was computed for each individual cell, using Leica Confocal Software, and a background fluorescence figure subtracted. For each cell, the ratio of background corrected surface:total IRAP-GFP was calculated. […] Each data point represents the red:green fluorescence ratio for one cell.

Molecule | MEAN R/G (average ratio of surface:total IRAP-GFP) [1] | translocation of IRAP-GFP to the plasma membrane (red:green ratio surface:total IRAP-GFP per cell, FIG. 4) [2]
COC[C@H]1OC(=O)c2coc3c2[C@@]1(C)C1=C(C3=O)[C@@H]2CCC(=O)[C@@]2(C)C[C@H]1OC(C)=O [Wortmannin, wortmannin, reference compound] | 0.363 | 
insulin | 1.252 | a significant proportion of cell undergo translocation
